Experiments:
[1] = molecular target: Thymidylate synthase (Escherichia coli, UniProt C3SWJ7); experiment: Inhibitory concentration against Escherichia coli thymidylate synthase
[2] = test system: HT-29; experiment: Growth inhibitory concentration against human HT-29 cells; type: functional
[3] = molecular target: Thymidylate synthase (Homo sapiens, UniProt P04818)
Description: Inhibitory concentration against human thymidylate synthase

[4] = test system: MDA-MB-231; experiment: Growth inhibitory concentration against human MDA-MB-231 cells; type: functional
[5] = Inhibitory concentration against Escherichia coli dihydrofolate reductase
[6] = test system: MOLT-4; experiment: Growth inhibitory concentration against human MOLT-4 cells; type: functional
[7] = molecular target: T1, Dihydrofolate reductase (Homo sapiens, UniProt P00374); experiment: Inhibitory concentration against human dihydrofolate reductase
T1 sequence (P00374 whole entry): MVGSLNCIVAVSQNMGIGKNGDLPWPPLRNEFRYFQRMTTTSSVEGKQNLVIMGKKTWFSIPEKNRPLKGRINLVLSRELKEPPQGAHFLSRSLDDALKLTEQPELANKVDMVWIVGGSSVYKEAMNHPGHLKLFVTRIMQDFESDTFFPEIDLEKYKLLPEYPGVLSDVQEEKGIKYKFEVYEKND

Chain of Thymidylate synthase (Homo sapiens, UniProt P04818) (P04818 whole entry): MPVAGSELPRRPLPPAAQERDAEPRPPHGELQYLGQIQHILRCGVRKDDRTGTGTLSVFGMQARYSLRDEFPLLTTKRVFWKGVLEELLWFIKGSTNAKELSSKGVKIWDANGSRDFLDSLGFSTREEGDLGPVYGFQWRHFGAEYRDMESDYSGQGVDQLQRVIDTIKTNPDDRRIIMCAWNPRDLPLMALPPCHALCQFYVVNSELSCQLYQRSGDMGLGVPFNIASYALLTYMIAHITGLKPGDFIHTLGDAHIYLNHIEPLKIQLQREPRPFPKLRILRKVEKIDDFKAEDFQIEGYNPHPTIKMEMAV
Chain of Thymidylate synthase (Escherichia coli, UniProt C3SWJ7) (C3SWJ7 whole entry): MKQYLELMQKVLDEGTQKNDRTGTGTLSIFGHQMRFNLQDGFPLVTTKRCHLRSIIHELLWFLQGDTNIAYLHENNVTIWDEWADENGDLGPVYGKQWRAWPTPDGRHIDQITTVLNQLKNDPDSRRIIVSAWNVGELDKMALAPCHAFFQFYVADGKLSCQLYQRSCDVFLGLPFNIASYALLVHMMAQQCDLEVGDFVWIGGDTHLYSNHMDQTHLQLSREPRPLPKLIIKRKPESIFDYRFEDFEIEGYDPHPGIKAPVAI

Row | Compound | IC50 [1] [µM] | GI50 [2] [µM] | IC50 [3] [µM] | GI50 [4] [µM] | GI50 ([4]; Homo sapiens, MDA-MB-231) [µM] | IC50 [5] [µM] | GI50 [6] [µM] | IC50 [7] [µM]
1 | Cc1[nH]c2nc(N)nc(O)c2c1Sc1ccc(Br)c([N+](=O)[O-])c1 | 11 | 6.18 | 0.21 | 3.28 | 6.55 | > 25 | 4.23 | 
2 | Cc1[nH]c2nc(N)nc(O)c2c1Sc1ccc(OC(F)(F)F)cc1 | > 23 |  | 2.3 |  |  | > 28 |  | 
3 | Cc1[nH]c2nc(N)nc(O)c2c1Sc1ccc(Br)cc1 |  |  | 0.46 |  |  | 2.8 |  | > 28
4 | Cc1[nH]c2nc(N)nc(O)c2c1Sc1ccc(C#N)cc1 |  |  | 0.28 |  |  | > 34 |  | > 34
5 | Cc1[nH]c2nc(N)nc(O)c2c1Sc1cc(C(F)(F)F)cc(C(F)(F)F)c1 |  |  | > 21 |  |  | > 25 |  | > 25
6 | Cc1[nH]c2nc(N)nc(O)c2c1Sc1cc(Cl)cc(Cl)c1 | > 24 |  | 2.4 |  |  | > 29 |  | 
7 | Cc1[nH]c2nc(N)nc(O)c2c1Sc1cc(F)cc(F)c1 |  |  | 2.7 |  |  | > 32 |  | > 32
8 | Cc1[nH]c2nc(N)nc(O)c2c1Sc1ccc(C(F)(F)F)cc1 |  |  | 0.8 |  |  | > 29 |  | > 29
9 | Cc1[nH]c2nc(N)nc(O)c2c1Sc1cccc(Br)c1 | > 24 |  | 1.2 |  |  | > 28 |  | 
10 | Cc1[nH]c2nc(N)nc(O)c2c1Sc1ccc(F)c(Cl)c1 |  |  | 0.83 |  |  | > 31 |  | > 31
11 | Cc1[nH]c2nc(N)nc(O)c2c1Sc1ccc(F)cc1 |  |  | 1.4 |  |  | > 33 |  | > 32
12 | Cc1[nH]c2nc(N)nc(O)c2c1Sc1cccc(Cl)c1 |  |  | 1.4 |  |  | > 33 |  | > 32
13 | Cc1[nH]c2nc(N)nc(O)c2c1Sc1cc([N+](=O)[O-])cc([N+](=O)[O-])c1 | > 23 |  | 23 |  |  | > 27 |  | 
14 | Cc1[nH]c2nc(N)nc(O)c2c1Sc1ccc(Cl)c([N+](=O)[O-])c1 | 23 |  | 0.46 |  |  | > 28 |  | 
15 | Cc1[nH]c2nc(N)nc(O)c2c1Sc1ccc(F)c(F)c1 |  |  | 0.9 |  |  | > 32 |  | > 32
16 | Cc1[nH]c2nc(N)nc(O)c2c1Sc1ccc(Br)c(Cl)c1 |  |  | 0.22 |  |  | > 26 |  | > 26
17 | Cc1[nH]c2nc(N)nc(O)c2c1Sc1cccc(F)c1 | > 28 |  | 2.8 |  |  | > 33 |  | 
